Results from article PMC5819854 (ACS Omega, 2017).
Where two headings read alike, the source gives them in different places.

Columns and labels:
[1] = molecular target: human D3R (Homo sapiens, UniProt P35462); experiment: Radioligand competition binding, human D3R
[2] = molecular target: human μOR (Homo sapiens, UniProt P35372); experiment: biochemical; assay type: binding
[3] = molecular target: human κOR (Homo sapiens, UniProt P41145); experiment: biochemical; assay type: binding
[4] = molecular target: human δOR (Homo sapiens, UniProt P41143); experiment: biochemical; assay type: binding
Sequence of human δOR (P41143 whole entry): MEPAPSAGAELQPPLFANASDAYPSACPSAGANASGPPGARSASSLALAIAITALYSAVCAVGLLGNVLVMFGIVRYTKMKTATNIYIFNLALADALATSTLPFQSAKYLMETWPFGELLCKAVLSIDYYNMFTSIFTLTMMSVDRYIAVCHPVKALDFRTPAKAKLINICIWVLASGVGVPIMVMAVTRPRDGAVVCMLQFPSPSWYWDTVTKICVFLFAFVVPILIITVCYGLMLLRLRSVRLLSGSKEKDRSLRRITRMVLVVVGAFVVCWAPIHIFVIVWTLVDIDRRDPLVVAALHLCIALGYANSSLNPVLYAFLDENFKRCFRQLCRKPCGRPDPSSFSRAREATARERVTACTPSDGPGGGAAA

Sequence of human κOR (P41145 whole entry): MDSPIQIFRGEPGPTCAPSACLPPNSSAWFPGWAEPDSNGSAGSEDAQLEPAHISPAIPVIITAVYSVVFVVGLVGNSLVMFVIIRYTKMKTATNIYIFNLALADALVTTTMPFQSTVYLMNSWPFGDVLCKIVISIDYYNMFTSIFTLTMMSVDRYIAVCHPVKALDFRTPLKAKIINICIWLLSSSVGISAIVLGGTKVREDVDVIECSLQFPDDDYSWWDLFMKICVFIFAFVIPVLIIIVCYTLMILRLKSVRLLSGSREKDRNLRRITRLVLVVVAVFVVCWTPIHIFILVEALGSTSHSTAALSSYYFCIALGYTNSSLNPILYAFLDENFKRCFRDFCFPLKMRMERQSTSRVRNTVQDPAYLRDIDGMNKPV
Sequence of human μOR (P35372 whole entry): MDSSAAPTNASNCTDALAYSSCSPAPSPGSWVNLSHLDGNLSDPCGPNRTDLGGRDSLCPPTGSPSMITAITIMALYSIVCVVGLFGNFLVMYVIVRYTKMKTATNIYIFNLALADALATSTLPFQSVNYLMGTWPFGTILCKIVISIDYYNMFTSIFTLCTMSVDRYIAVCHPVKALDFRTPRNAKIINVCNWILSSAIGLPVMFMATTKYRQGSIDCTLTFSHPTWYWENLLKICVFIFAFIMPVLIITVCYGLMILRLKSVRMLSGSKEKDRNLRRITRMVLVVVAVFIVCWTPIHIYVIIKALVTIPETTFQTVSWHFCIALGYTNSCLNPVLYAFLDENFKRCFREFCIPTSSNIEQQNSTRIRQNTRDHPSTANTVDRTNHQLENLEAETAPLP
Sequence of human D3R (P35462 whole entry): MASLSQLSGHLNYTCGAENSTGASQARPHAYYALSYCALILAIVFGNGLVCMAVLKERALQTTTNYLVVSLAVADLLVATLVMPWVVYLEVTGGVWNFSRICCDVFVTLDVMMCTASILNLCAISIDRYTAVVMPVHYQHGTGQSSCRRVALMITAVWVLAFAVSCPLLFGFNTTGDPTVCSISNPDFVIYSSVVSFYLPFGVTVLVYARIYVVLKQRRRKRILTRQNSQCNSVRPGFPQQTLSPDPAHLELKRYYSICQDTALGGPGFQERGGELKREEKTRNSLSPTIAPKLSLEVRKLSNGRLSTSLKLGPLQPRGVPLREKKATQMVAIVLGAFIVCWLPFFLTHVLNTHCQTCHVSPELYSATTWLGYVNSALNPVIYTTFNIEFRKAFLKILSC

2-(4-Fluorobiphen-2-yl)-N-(4-(4-(3-methoxyphenyl)piperazine-1-yl)but-1-yl)azocarboxamide [3e]
affinity for the D3 receptor (in words) [1]: sub-nanomolar | D3 selectivity over 5-HT1A, Ki(5-HT1A/D3) ([1]; ratio of Ki values): 43 | increase of D3 affinity compared to reference compound 3a ([1]; vs ortho- and meta-unsubstituted 3a): 10 fold

CN(C)C1(CNC(=O)/N=N/c2ccc(F)cc2)CCCCC1 [4a, (E)-N-((1-(Dimethylamino)cyclohexyl)methyl)-2-(4-fluorophenyl)diazene-1-carboxamide]
Ki [2]: 2.5 ± 1.1 µM | selectivity between the κ and μ opioid receptor subtypes (in words) [2]: did not show any selectivity | Ki [3]: 3.1 ± 0.78 µM

(E)-N-((1-(Dimethylamino)cyclohexyl)methyl)-2-(4-fluorobiphen-2-yl)diazene-1-carboxamide [4e]
Ki ([2]; read-out: Ki μOR): 2.1 ± 0.57 µM | Ki ([3]; read-out: Ki κOR): 4.8 ± 1.3 µM

Cc1cc(/N=N/C(=O)NCC2(N(C)C)CCCCC2)ccc1F [4c, (E)-N-((1-(Dimethylamino)cyclohexyl)methyl)-2-(4-fluoro-3-methylphenyl)diazene-1-carboxamide]
Ki [2]: 1.1 ± 0.35 µM | affinity for the μ-opioid receptor (in words) [2]: micromolar | subtype selectivity Ki(δOR/μOR) [2]: 27 | subtype selectivity Ki(κOR/μOR) [2]: 4.4 | Ki [3]: 4.8 ± 1.8 µM

2-(4-Fluoro-2-methoxyphenyl)-N-(4-(4-(2-methoxyphenyl)piperazine-1-yl)but-1-yl)azocarboxamide [3d]
affinity for the D3 receptor (in words) [1]: single-digit

Cc1cc(F)ccc1/N=N/C(=O)NCC1(N(C)C)CCCCC1 [4b, (E)-N-((1-(Dimethylamino)cyclohexyl)methyl)-2-(4-fluoro-2-methylphenyl)diazene-1-carboxamide]
Ki [2]: 4.9 ± 0.35 µM | Ki [3]: 6.1 ± 1.8 µM

COc1cc(F)ccc1/N=N/C(=O)NCC1(N(C)C)CCCCC1 [4d, (E)-N-((1-(Dimethylamino)cyclohexyl)methyl)-2-(4-fluoro-2-methoxyphenyl)diazene-1-carboxamide]
Ki [4]: 38 ± 38 µM | Ki [2]: 7.4 ± 5.2 µM | selectivity between the κ and μ opioid receptor subtypes (in words) [2]: did not show any selectivity | Ki [3]: 7.2 ± 1.8 µM
